In assay [1] the target is T1, HCV NS5B polymerase (His-tagged, C-terminal 21 amino acid deleted NS5B, HC-J4) (Hepatitis C virus genotype 1b, UniProt O92972).
T1 construct: The cDNA encoding NS5B amino acid 1-570 (HC-J4, genotype 1b); His tag (His6, from pET-21b) (C); made in house; host or cells: E. coli BL21 (DE3)
The assay can be described thus: NS5b polymerase assay (biochemical RdRp assay, 3H-GTP incorporation, SPA beads). The arrangement: species or system HCV genotype 1b. The method in brief: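 His-tagged C-terminal-21-aa-deleted NS5B (genotype 1b, HC-J4) at 200 nM was preincubated 15 min at RT with compound on 5′-biotinylated oligo(rG13)/poly(rC) template/primer before NTPs. Reaction with 600 nM GTP plus 0.1 μCi 3H-GTP and 5 mM MgCl2 in Tris pH 7.5 ran 2 h at 25 °C. Stopped with EDTA/SPA beads for incorporation counting.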

The subject of assay [2] is HCV replicon RNA replication in Huh-7 luc/neo (Huh-Luc) cells. In words: HCV replicon assay (stable replicon cell reporter assay, luciferase read-out). It counts as cell-based, HCV type 1b. The gist of the method:
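Huh-7 cells stably carry a bicistronic HCV 1b NS3-NS5B subgenomic replicon with firefly luciferase and neo markers. Cells were plated with compound across a concentration range and incubated three days. Replication was measured as luciferase activity to give dose-response curves.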
Background: A replicon is a self-replicating genome or part of one, used to study replication in cells.

Where [3] appears, read: 200 nM enzyme, 3H-GTP incorporation, 2 h at 25° C., read-out: NS5B Polymerase Assay IC50.
Where [4] appears, read: Huh-Luc cells, three days incubation, luciferase activity, read-out: Replicon Assay EC50.
Where [5] appears, read: NS5B Polymerase Assay IC50, 200 nM enzyme, 3H-GTP incorporation, 2 h at 25° C.
[6] abbreviates: Hepatitis C virus, Huh-7, 72 h, read-out: Replicon Assay EC50, Huh-Luc cells, three days incubation, luciferase activity.
[7] abbreviates: NS5B Polymerase Assay IC50 (μM).
Setting [8] is: Hepatitis C virus, Huh-7, 72 h, read-out: Replicon Assay EC50 (μM), Huh-Luc cells, incubation of three days, luciferase activity.

Read-outs that look alike come from different tables or passages of the source. Some results are limits rather than exact numbers.

T1 sequence (O92972 2417-3000, looked up, stated change not applied): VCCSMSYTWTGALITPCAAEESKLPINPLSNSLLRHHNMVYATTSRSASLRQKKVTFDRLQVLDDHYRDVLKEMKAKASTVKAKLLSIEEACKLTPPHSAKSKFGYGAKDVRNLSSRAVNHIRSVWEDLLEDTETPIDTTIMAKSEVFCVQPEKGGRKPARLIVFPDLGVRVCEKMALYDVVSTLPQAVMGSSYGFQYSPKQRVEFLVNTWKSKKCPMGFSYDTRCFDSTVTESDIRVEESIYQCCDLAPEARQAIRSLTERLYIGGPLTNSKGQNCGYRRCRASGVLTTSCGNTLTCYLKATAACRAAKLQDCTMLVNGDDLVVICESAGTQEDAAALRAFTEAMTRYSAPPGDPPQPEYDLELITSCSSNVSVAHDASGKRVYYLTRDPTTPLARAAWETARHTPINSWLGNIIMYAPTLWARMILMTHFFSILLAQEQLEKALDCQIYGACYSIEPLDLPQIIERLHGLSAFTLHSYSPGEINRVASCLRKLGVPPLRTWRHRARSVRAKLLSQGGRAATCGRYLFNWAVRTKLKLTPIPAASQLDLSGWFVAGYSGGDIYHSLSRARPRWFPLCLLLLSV

One may read the IC50 as the point on the concentration scale where inhibition reaches its midpoint. Broadly, the EC50 is the concentration that produces a half-maximal response. Consider `CCCCCC(=O)N1c2ccccc2NC2=C(C(=O)CC(c3ccc(OC)c(OC)c3)C2)C1c1cccc([N+](=O)[O-])c1` (mixture of isomers) [compound 181], for which the half-maximal inhibitory concentration (IC50) in assay [1] (setting [3]) was more than 33.3 µM. Besides, the concentration for a half-maximal effect (EC50) in assay [2] (setting [4]) is 2.41 µM.

For the molecule `CC(C)CC(=O)N1c2ccccc2NC2=C(C(=O)CC(C)(C)C2)C1c1ccc(Cl)cc1` (stereo not drawn) [compound 9], the half-inhibitory concentration (IC50) in assay [1] (setting [5]) is more than 42.7 µM. Further, the EC50 in assay [2] (setting [6]) was 3.61 µM.

The molecule `CCCCC(=O)N1c2ccccc2NC2=C(C(=O)CC(C)(C)C2)C1c1ccccc1Cl` (stereo not drawn) [compound 66] came in with an IC50 in assay [1] (setting [5]) of more than 42.7 µM. Besides, the EC50 in assay [2] (setting [6]) was found to be 23 µM.

In the case of `CCCCOc1ccc(C2CC(=O)C3=C(C2)Nc2ccccc2N(C(=O)C(F)(F)F)C3c2ccccc2)cc1` (stereo not drawn) [compound 171], the IC50 in assay [1] (setting [3]) was more than 42.7 µM. Also, in assay [2] (setting [4]), the EC50 was 4.54 µM.

The molecule `COc1ccc(C2C3=C(CC(c4ccco4)CC3=O)Nc3ccccc3N2C(C)=O)cc1OC` (stereo not drawn) [compound 293] came in with an IC50 in assay [1] (setting [5]) of more than 42.7 µM. Also, the half-maximal effective concentration (EC50) in assay [2] (setting [6]) was more than 32 µM.

Regarding `COc1ccc(C2CC(=O)C3=C(C2)Nc2ccccc2NC3c2cccc(Cl)c2Cl)cc1` (stereo not drawn) [compound 357], the IC50 in assay [1] (setting [7]) was more than 42.7 µM. Further, the concentration giving a half-maximal response (EC50) in assay [2] (setting [8]) turned out to be 7.01 µM.

Molecule `CC(=O)N1c2ccccc2NC2=C(C(=O)CC(C)C2)C1c1ccc(Cl)cc1Cl` (stereo not drawn) [compound 294, 10-acetyl-11-(2,4-dichlorophenyl)-3-methyl-2,3,4,5,10,11-hexahydro-1H-dibenzo[b,e][1,4]diazepin-1-one] showed an IC50 in assay [1] (setting [5]) of 10.4 µM. Moreover, the EC50 in assay [2] (setting [6]) worked out at 42 µM.

In assay [1] (setting [7]), `COc1ccc(C2CC(=O)C3=C(C2)Nc2ccccc2NC3c2ccccc2C(F)(F)F)cc1` (stereo not drawn) [compound 324] came in with an IC50 of more than 42.6 µM. Further, the EC50 in assay [2] (setting [8]) was determined as 18.5 µM.

`CC1(C)CC(=O)C2=C(C1)Nc1ccccc1NC2c1ccc(C(F)(F)F)cc1` (stereo not drawn) [compound 429] registered an IC50 in assay [1] (setting [7]) of more than 42.7 µM. In assay [2] (setting [8]), the EC50 was more than 31 µM.

In turn, `CC1(C)CC(=O)C2=C(C1)Nc1ccccc1NC2c1ccc([N+](=O)[O-])cc1` (stereo not drawn) [compound 448] showed an IC50 in assay [1] (setting [7]) of more than 133 µM. For the same molecule, the concentration for a half-maximal effect (EC50) in assay [2] (setting [8]) is more than 100 µM.

In turn, `CC(=O)N1c2ccccc2NC2=C(C(=O)CC(C)(C)C2)C1c1cccc(Cl)c1Cl` (stereo not drawn) [compound 29] came in with an IC50 in assay [1] (setting [5]) of more than 42.7 µM. In assay [2] (setting [6]), the concentration giving a half-maximal response (EC50) was 6.79 µM.

Turning to `CC1(C)CC(=O)C2=C(C1)Nc1ccccc1NC2/C(Br)=C/c1ccccc1` (racemic) [compound 500, 11-(1-Bromo-2-phenylvinyl)-3,3-dimethyl-2,3,4,5,10,11-hexahydro-dibenzo[b,e][1,4]diazepin-1-one], in assay [1] (setting [7]), the concentration for half-maximal inhibition (IC50) is more than 133 µM. For the same molecule, in assay [2] (setting [8]), the 50% effective concentration (EC50) was 26.5 µM.

`CCn1c2ccccc2c2cc([C@@H]3Nc4ccccc4NC4=C3C(=O)C[C@@H](c3ccccc3)C4)ccc21` [compound 484] gave a 50% inhibitory concentration (IC50) in assay [1] (setting [7]) of more than 42.7 µM. Moreover, in assay [2] (setting [8]), the EC50 worked out at 6.65 µM.

Molecule `COc1ccc(OC)c(C2C3=C(CC(C)(C)CC3=O)Nc3ccccc3N2C(=O)C(F)(F)F)c1Br` (stereo not drawn) [compound 96] displayed an IC50 in assay [1] (setting [5]) of more than 42.7 µM. Further, in assay [2] (setting [6]), the EC50 amounted to 11.4 µM.

As for `CC1(C)CC(=O)C2=C(C1)Nc1ccccc1NC2c1ccc(OCc2ccccc2)cc1` (stereo not drawn) [compound 426], the IC50 in assay [1] (setting [7]) was found to be 30.8 µM. In addition, the EC50 in assay [2] (setting [8]) was determined as 7.31 µM.

In the case of `CC(=O)N1c2ccccc2NC2=C(C(=O)CC(C)(C)C2)C1c1ccc(OCc2cccnc2)cc1` (stereo not drawn) [compound 140, 10-acetyl-3,3-dimethyl-11-[4-(3-pyridylmethoxy)phenyl]-2,3,4,5,10,11-hexahydro-1H-dibenzo[b,e][1,4]diazepin-1-one], the IC50 in assay [1] (setting [5]) was determined as 19.1 µM. The EC50 in assay [2] (setting [6]) amounted to 7.23 µM.

In assay [1] (setting [7]), `COC(=O)CN1c2ccccc2NC2=C(C(=O)CC(C)(C)C2)C1c1ccc(Cl)cc1Cl` (stereo not drawn) [compound 510] gave an IC50 of more than 133 µM. For the same molecule, the EC50 in assay [2] (setting [8]) amounted to 4.56 µM.

`CC(=O)N1c2ccccc2NC2=C(C(=O)CC(C)(C)C2)C1c1ccc(-c2ccc([N+](=O)[O-])cc2Cl)o1` (stereo not drawn) [compound 279]: the IC50 in assay [1] (setting [5]) is more than 42.7 µM. Also, the concentration giving a half-maximal response (EC50) in assay [2] (setting [6]) is 9.27 µM.

As to `COc1ccc(C2CC(=O)C3=C(C2)Nc2ccccc2NC3c2ccc(OC)cc2OC)cc1` (stereo not drawn) [compound 372], the half-maximal inhibitory concentration (IC50) in assay [1] (setting [7]) was more than 42.7 µM. Moreover, in assay [2] (setting [8]), the concentration for a half-maximal effect (EC50) is 1.94 µM.

Regarding `COc1ccc([C@@H]2CC(=O)C3=C(C2)Nc2ccccc2N[C@H]3c2ccc(C)s2)cc1` [compound 490], the IC50 in assay [1] (setting [7]) is more than 42.7 µM. For the same molecule, the concentration for a half-maximal effect (EC50) in assay [2] (setting [8]) was found to be 24.9 µM.

Regarding `CCOc1cc(C2C3=C(CC(C)(C)CC3=O)Nc3ccccc3N2C(=O)c2ccccc2)ccc1O` (stereo not drawn) [compound 64], the 50% inhibitory concentration (IC50) in assay [1] (setting [5]) is more than 42.7 µM. Besides, in assay [2] (setting [6]), the half-maximal effective concentration (EC50) came out at 22.9 µM.

As to `CCCOc1ccccc1C1CC(=O)C2=C(C1)Nc1ccccc1N(C(=O)C(F)(F)F)C2c1ccc(OC)cc1` (stereo not drawn) [compound 163], in assay [1] (setting [3]), the IC50 is more than 42.7 µM. Besides, the EC50 in assay [2] (setting [4]) was found to be 1.76 µM.

Regarding `CC1(C)CC(=O)C2=C(C1)Nc1ccccc1N(C(=O)c1ccccc1)C2c1ccccc1F` (stereo not drawn) [compound 94], the 50% inhibitory concentration (IC50) in assay [1] (setting [5]) is more than 42.7 µM. Also, the EC50 in assay [2] (setting [6]) turned out to be 3.4 µM.

Molecule `CC(C)C(=O)N1c2ccccc2NC2=C(C(=O)CC(C)(C)C2)C1c1ccc(Cl)cc1Cl` (stereo not drawn) [compound 28] showed an IC50 in assay [1] (setting [5]) of more than 42.7 µM. In addition, in assay [2] (setting [6]), the EC50 worked out at 5.52 µM.

On to `O=C1C[C@@H](c2ccccc2)CC2=C1[C@H](c1cc3c(cc1Br)OCO3)Nc1ccccc1N2` [compound 481], for which the IC50 in assay [1] (setting [7]) was more than 42.7 µM. For the same molecule, the half-maximal effective concentration (EC50) in assay [2] (setting [8]) turned out to be 1.61 µM.

Take `CCC(=O)N1c2ccccc2NC2=C(C(=O)CC(C)(C)C2)C1c1ccc(F)cc1` (stereo not drawn) [compound 49]: the 50% inhibitory concentration (IC50) in assay [1] (setting [5]) is more than 42.7 µM. The concentration for a half-maximal effect (EC50) in assay [2] (setting [6]) is 11.2 µM.

For `CC(=O)N1c2ccccc2NC2=C(C(=O)CC(C)(C)C2)C1c1cccnc1` (stereo not drawn) [compound 258], the IC50 in assay [1] (setting [5]) is more than 42.7 µM. The concentration giving a half-maximal response (EC50) in assay [2] (setting [6]) was more than 32 µM.

In assay [1] (setting [7]), `COc1cccc(C2Nc3ccccc3NC3=C2C(=O)CC(c2ccccc2)C3)c1` (stereo not drawn) [compound 330] yielded an IC50 of more than 42.7 µM. In addition, in assay [2] (setting [8]), the concentration giving a half-maximal response (EC50) amounted to 23.2 µM.

Turning to `CC(=O)N1c2ccccc2NC2=C(C(=O)CC(c3ccccc3Cl)C2)C1c1ccc(C)cc1` (stereo not drawn) [compound 229], the concentration for half-maximal inhibition (IC50) in assay [1] (setting [3]) was more than 42.7 µM. In addition, the EC50 in assay [2] (setting [4]) was determined as 10.9 µM.

`COc1ccc(C2CC(=O)C3=C(C2)Nc2ccccc2NC3c2cccc(OC)c2OC)cc1OC` (stereo not drawn) [compound 401] displayed an IC50 in assay [1] (setting [7]) of more than 42.7 µM. Further, the half-maximal effective concentration (EC50) in assay [2] (setting [8]) is 2.88 µM.

In assay [1] (setting [5]), `CCCCCC(=O)N1c2ccccc2NC2=C(C(=O)CC(C)(C)C2)C1c1ccccc1OC(C)CC` (stereo not drawn) [compound 93] displayed an IC50 of more than 42.7 µM. In addition, the EC50 in assay [2] (setting [6]) was found to be 4.05 µM.

`COc1cccc(C2Nc3ccccc3NC3=C2C(=O)CC(c2ccccc2)C3)c1OC` (stereo not drawn) [compound 347] yielded an IC50 in assay [1] (setting [7]) of more than 42.7 µM. Moreover, the EC50 in assay [2] (setting [8]) was 20.7 µM.

For `COc1ccc(OC)c(C2C3=C(CC(C)(C)CC3=O)Nc3ccccc3N2C(C)=O)c1` (stereo not drawn) [compound 118], in assay [1] (setting [5]), the half-inhibitory concentration (IC50) was more than 42.7 µM. Moreover, in assay [2] (setting [6]), the concentration for a half-maximal effect (EC50) is more than 32 µM.

`CCOc1ccccc1C1Nc2ccccc2NC2=C1C(=O)CC(c1ccccc1)C2` (stereo not drawn) [compound 393] had a half-maximal inhibitory concentration (IC50) in assay [1] (setting [7]) of more than 33.3 µM. Further, the 50% effective concentration (EC50) in assay [2] (setting [8]) was 6.84 µM.

Molecule `O=C1CC(c2ccc(Cl)cc2)CC2=C1C(c1ccccc1OCc1ccccc1)Nc1ccccc1N2` (stereo not drawn) [compound 366] came in with a half-maximal inhibitory concentration (IC50) in assay [1] (setting [7]) of more than 42.7 µM. The 50% effective concentration (EC50) in assay [2] (setting [8]) was 5.31 µM.

On to `CC(=O)N1c2ccccc2NC2=C(C(=O)CC(C)(C)C2)C1c1cc(Cl)c(OCc2ccccc2)c(Cl)c1` (stereo not drawn) [compound 143, 10-acetyl-11-[4-benzyloxy-3,5-dichlorophenyl]-3,3-dimethyl-2,3,4,5,10,11-hexahydro-1H-dibenzo[b,e][1,4]diazepin-1-one], for which, in assay [1] (setting [5]), the IC50 came to 16 µM. In addition, the concentration for a half-maximal effect (EC50) in assay [2] (setting [6]) worked out at 6.3 µM.

The record behind these values is patent US20090221559A1 (priority 2005, published 2009).
